According to ChEMBL document CHEMBL1128889, “Preparation and biological evaluation of -Trifluoromethyl-,-unsaturated carbonyl compounds” (Bioorg Med Chem Lett, 1995):
≈ marks a conversion by molar mass, not a printed value.

Assay: In vitro viable cell inhibitory towards interleukin-2 antiproducing effect was determined.
Assay type: functional

| Compound | IC50 |
| --- | --- |
| CC1(C)OC[C@H]([C@H](OC(=O)/C=C/C(F)(F)F)[C@@H](OC(=O)/C=C/C(F)(F)F)[C@H]2COC(C)(C)O2)O1 | 0.8 µg/mL (≈ 1.58 µM) |
| CC1(C)COC(=O)[C@@H]1OC(=O)/C=C/C(F)(F)F | 3.71 µg/mL (≈ 14.7 µM) |
